Assay results from patent publication US20160311886A1, “Constructs Binding to Phosphatidylserine and Their Use in Disease Treatment and Imaging” (Board of Regents, The University of Texas System, priority 2005, published 2016).

Key:
bEnd.3 endothelial cells = assay: H2O2 induction of PS, anti-PS staining and Trypan Blue exclusion
ABAE cells = assay: Induction of PS exposure, 125I-annexin V binding; type: cell-based, bovine; conditions: ABAE and bEnd.3 cells, immunohistochemically
Procedure: All reagents were diluted in medium containing 10% serum and incubated with the cells at 37° C. for 24 h.
To study the effect of hypoxia, cells were seeded on 24 well plates and were incubated in a humidified normoxic atmosphere (21% O2, 5% CO2) for 48 h before being transferred to a humidified hypoxic atmosphere (1% O2, 5% CO2, 94% N2) in a sealed chamber (Billups Rothenberg Inc., Del Mar, Ca). Cells were incubated in a hypoxic chamber for 24 h at 37° C. and were then returned to a normoxic environment for 4 h at 37° C. The cells were compared to a parallel culture from an identical passage, seeded on the same day and maintained entirely under normoxic conditions. In some studies, IL-1α (10 ng/ml) and TNFα (20 ng/ml) were added to the medium before transfer to the hypoxic chamber.
After treatment with the reagents described above, treated and control cells were incubated with 7.1 pmoles of ^125I-labeled annexin V (200 μl/well) in the binding buffer. After 2 h incubation at room temperature, cells were washed extensively and dissolved in 0.5 M of NaOH. The entire volume of 0.5 ml was transferred to plastic tubes and counted in a gamma counter. Non-specific binding was determined in the presence of 5 mM EDTA and was subtracted from experimental values. The results were expressed as net pmoles of cell-bound annexin V, normalized per 1×10^6 cells.
Maximal binding of annexin V was determined on cells simultaneously treated with actinomycin D and TNFα (50 ng/ml of each component). As has been previously reported, these agents cause apoptosis and PS exposure in 90-100% of endothelial cells (Lucas et al., 1998). Basal binding of ^125I-annexin V to untreated cells was determined in the presence of medium with 10% serum. The amount of ^125I-annexin V that bound to the untreated cultures was subtracted from that in the treated cultures. Exposure of PS was calculated according to the following formula: cell-bound annexin V (pmoles) under experimental conditions divided by maximal annexin V binding (pmoles), multiplied by 100. Each study was performed in duplicate and was performed at least three times. Mean values were calculated. The SE of the mean values from three separate experiments was less than 5%.

tumor vessels = assay: Docetaxel-induced PS exposure on tumor vessels; type: in vivo, mouse; conditions: after docetaxel treatment; 35% before
Excerpt: In such studies, docetaxel treatment of mice increased the percentage of tumor vessels that expose anionic phospholipids from 35% to 60%. No induction of PS was observed on vessels in normal tissues even after systemic treatment with docetaxel.

HUVEC and HMVEC = assay: Docetaxel-induced PS exposure on endothelial cells, FACS; type: cell-based, human
Procedure: The induction of PS exposure on endothelial cells by subclinical concentrations of docetaxel was examined in vitro by FACS analysis. […] […] Docetaxel incubations for 48 and 72 hrs were also conducted.

[1] = system: 3LL, Colo26, MDA-MB-435, B16, Meth A cells; assay: Docetaxel-induced PS exposure on tumor cell lines, FACS; type: cell-based, mouse, human; conditions: 10 nM, 24 hrs
Procedure: The in vitro induction of PS exposure by subclinical concentrations of docetaxel was also examined by FACS analysis using a panel of tumor cell lines. Mouse lewis lung carcinoma 3LL, mouse colon carcinoma Colo26 and human breast cancer MDA-MB-435 cells were treated with 10 nM of docetaxel for 24 hrs and examined by FACS. […] Docetaxel incubations for 48 and 72 hrs were also conducted.

[2] = system: Pan02 mouse pancreatic adenocarcinoma; assay: 3G4 and gemcitabine, pancreatic cancer; type: in vivo; conditions: 3G4 100 μg, gemcitabine 3.5 mg; day 22
Procedure: Pan02 mouse pancreatic adenocarcinoma cells were injected into the pancreas of immunocompetent C57BL/6 mice. Treatment was started on day 5 after tumor cell injection. […] Gemcitabine is a pyrimidine anti-metabolite. The animals were sacrificed at day 22 after tumor cell injection, and the tumor weight determined.

[3] = system: syngeneic prostatic tumors; assay: Bavituximab in rats with syngeneic prostatic tumors; conditions: rat, in vivo
[4] = system: ABAE cells with exposed PS; assay: Live-cell binding assay on LPC-treated endothelial cells; type: cell-based, bovine
Procedure: Adult bovine aortic endothelial (ABAE) cells were maintained in DMEM supplemented with 10% FBS and 2 mM L-glutamine. ABAE cells were removed from subconfluent cultures by brief exposure to 0.25% trypsin/0.02% EDTA, and 8-well chamber slides were seeded with 2×10^4 cells/well. Following overnight culture, cells were washed gently with PBS and treated with 200 μM lysophosphatidylcholine (LPC) to induce PS exposure.
PS exposure was determined by immunofluorescence staining. Cells were washed thoroughly in PBS, fixed in 4% paraformaldehyde (w/v), and incubated with a biotin-conjugated anti-mouse secondary antibody. Next, cells were incubated with FITC-conjugated streptavidin (Jackson Immunoresearch) to detect antibody binding. Cells were then permeablized with 0.1% Triton-X100 in PBS and counterstained with Texas Red-conjugated phalloidin (Molecular Probes, Eugene, Oreg.), and 4′, 6-diamidino-2-phenylindole (DAPI; Molecular Probes). Images were captured using a Coolsnap digital camera (Photometrics, Tucson, Ariz.) mounted on a Nikon microscope and processed with MetaVue software (Universal Imaging Corporation, Downingtown, Pa.).
The area of antibody binding was determined using MetaVue image analysis software, which is able to quantify the number of illuminated pixels in an image. Images of FITC fluorescence were used to quantify antibody binding. Corresponding images of DAPI fluorescence were used to normalize the FITC images for the number of cells present in the field. A small FITC/DAPI ratio indicates a small antibody binding area, whereas a large FITC/DAPI ratio indicates a large binding area. The FITC/DAPI ratios were used to determine increases or decreases in antibody binding area relative to a basal amount of antibody binding under the selected conditions. Five images at 200× magnification were used for each analysis. Data are presented as average relative FITC/DAPI ratios with error bars representing the standard deviation.
Cells were then washed, fixed, and stained with fluorescent markers to visualize binding of antibody to the cell surface.

[5] = Administration to atherosclerotic rabbits; conditions: rabbit, in vivo
[6] = Binding of ch3G4 and 2aG4 to phospholipid-coated ELISA plates; conditions: vs murine 3G4
MDA-MB-435 breast tumors = assay: 3G4 and chimeric 3G4 tumor treatment; type: in vivo, mouse; conditions: MD-MBA-435s; IP 800 μg day 15, 200 μg every two to three days, 400 μg day 35
Procedure: Tumors were also established using MD-MBA-435s cells and treated as described above. […] The treatment of large L540 tumors, MDA-MB-231 and MD-MBA-435s tumor cells for 60 days was also effective. The antibodies caused tumor vascular injury, thrombosis and necrosis and retarded tumor growth, with no evidence of toxicity.
MD-MBA-435s lucerifase cells were obtained from Dr. Angels Sierra Jimenez, Barcelona, Spain and were grown in 10% DMEM. Mice were injected with tumor cells as described as above, and at 2 weeks post injection, the tumors were measured and the volume recorded. […] Treatment was initiated by IP injection (800 μg) at day 15 and continued with injections of 200 μg every two to three days until the final injection of 400 μg at day 35. Tumor volumes and mouse body weights were measured on injection days. Mice were sacrificed and perfused with saline for 12 minutes. The organs and tumor were removed, snap-frozen in liquid nitrogen and the tumor sectioned for immunohistochemistical analysis.
Groups of 8-10 female SCID mice were injected subcutaneously with 2×10^7 L540 cells or orthotopically with 1×10^7 MDA-MB-435 or MDA-MB-231 cells. BALB/c mice were injected subcutaneously with 1×10^6 Meth A cells. […] Animals were monitored three times a week for tumor size and body weight. […]

[7] = system: U937 cells infected with Vaccinia virus; type: cell-based; conditions: m.o.i of 2, 2 days
[8] = Serum dependence of binding to PS
Procedure: The serum dependence or independence of the antibodies is also set forth in Table 2 (see also, Example XXX).
The 1B9, 2G7 and 7C5 antibodies behave essentially the same. These antibodies recognize only PS and require serum or serum proteins for binding to PS. The binding of 1B9, 2G7 and 7C5 to various phospholipids in the present example was assayed only in the presence of 10% bovine serum, whereas binding of the other antibodies was tested either in the absence or in the presence of serum.

human β2GPI = biological target: T1, human β2GPI (Homo sapiens, UniProt P02749); assay: Anti-hβ2GPI ELISA; type: binding
T1 construct: Human β2GPI (hβ2GP1) was purified from human plasma essentially as described previously; from tissue; host or cells: pooled human plasma
T1 sequence (P02749 20-345): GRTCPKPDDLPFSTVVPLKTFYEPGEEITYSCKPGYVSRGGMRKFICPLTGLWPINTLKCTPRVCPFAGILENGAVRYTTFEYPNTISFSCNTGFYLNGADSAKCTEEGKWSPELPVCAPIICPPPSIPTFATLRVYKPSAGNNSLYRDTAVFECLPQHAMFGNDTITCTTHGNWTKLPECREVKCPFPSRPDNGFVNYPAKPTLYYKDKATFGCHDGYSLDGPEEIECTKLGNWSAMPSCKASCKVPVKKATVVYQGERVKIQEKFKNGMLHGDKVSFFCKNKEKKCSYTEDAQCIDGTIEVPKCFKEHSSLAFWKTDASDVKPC
Procedure: The assay was performed as described above with the following modifications. hβ2GPI, nicked hβ2GPI, or recombinant hβ2GPI peptides were coated on 96-well Immunlon 2HB microtiter plates overnight at a concentration of 10 μg/ml. Plates were then blocked in 1% OVA for 1 hr. at room temperature. […] Plates were incubated for 1 hr. at 37° C. and antibody binding was detected. All ELISA studies were performed at least three times.

[9] = Phospholipid specificity ELISA; type: binding
Procedure: The specificity of the antibodies was determined by ELISA using plates coated with the following phospholipids: PS, phosphatidylserine; PE, phosphatidylethanolamine; PI, phosphatidylinositol; PA, phosphatidic acid; PG, phosphatidylglycerol; PC, phosphatidylcholine; CL, cardiolipin; and SM, sphingomyelin.

WiDr (colon carcinoma) = assay: WiDr colon carcinoma model; type: in vivo, mouse; conditions: 100 μg 3×/week from day 5; preliminary study
Procedure: Treatment was started on day 5, when the tumors were small (10 mice per group). 100 μg of each antibody was injected 3×/week and tumor growth monitored.

Monkey safety studies = type: in vivo, cynomolgus monkeys; conditions: repeat dosing
Procedure: This is 100 times the calculated therapeutic dose ([…]).

mCMV RVG102 = assay: Survival of mCMV-infected mice; type: in vivo, mouse; conditions: past 90 days post infection; untreated 25%

OO [Hydrogen peroxide, hydrogen peroxide]
cell viability (bEnd.3 endothelial cells; H2O2 at high concentrations): 50-60% | cell viability (bEnd.3 endothelial cells; low levels of H2O2, identical to untreated control): 95% | cells that bound biotinylated annexin V (ABAE cells): More than 70%

CC(=O)O[C@@]12CO[C@@H]1C[C@H](O)[C@@]1(C)C(=O)[C@H](O)C3=C(C)[C@@H](OC(=O)[C@H](O)[C@@H](NC(=O)OC(C)(C)C)c4ccccc4)C[C@@](O)([C@@H](OC(=O)c4ccccc4)[C@H]21)C3(C)C [docetaxel]
tumor vessels that expose anionic phospholipids (tumor vessels): 60% | externalization of anionic phospholipids on HUVEC (HUVEC and HMVEC; 20 pM): caused anionic phospholipids to be externalized without inducing apoptosis | 3G4 binding vs untreated cells (HUVEC and HMVEC; 10 nM, 24 hrs): significant increase in 3G4 binding | 3G4 binding vs untreated cells [1]: significant increase in 3G4 binding

Nc1ccn([C@@H]2O[C@H](CO)[C@@H](O)C2(F)F)c(=O)n1 [gemcitabine, reference compound]
anti-tumor effect (tumor weight) [2]: significant anti-tumor effect

ch3G4: Human-mouse chimeric (human IgG1) version of 3G4, termed bavituximab
tumor homing of radiolabeled antibody [3]: shown to home to syngeneic prostatic tumors in rats | tumor perfusion [3]: Reduced tumor perfusion | binding to LPC-treated ABAE cells ([4]; 10% MS plus purified hβ2GPI): widespread binding | binding to LPC-treated ABAE cells ([4]; 10% MS, no hβ2GPI): no antibody binding was detected | safety in atherosclerotic rabbits ([5]; listed as chimeric version of the 3G4 antibody): did not exacerbate aortic atherosclerotic lesions | safety in atherosclerotic rabbits ([5]; listed as humanized 3G4 antibody): shown to be safe | binding to phospholipid-coated ELISA plates [6]: bound at least as did well as the murine 3G4 | tumor growth vs control (MDA-MB-435 breast tumors): effectively retarded tumor growth | FACS shift vs uninfected cells [7]: significant shift | Serum cofactor? [8]: Yes | binding to nicked hβ2GPI coated on microtiter plates (human β2GPI): binds nicked hβ2GPI as well as hβ2GPI | Relative Strength of Reactivity on ELISA [9]: PS = PA = PI = PG = CL >> PE | tumor growth (WiDr (colon carcinoma)): slowed tumor growth to essentially the same degree | No adverse effect level (NOAEL) (Monkey safety studies): approximately 10 mg/kg/week | survival (mCMV RVG102): 80%
